One series deals with Ser. marcescens A20019. Kind of series: MIC, 2-fold broth dilution, Ser. marcescens A20019. The following applies: Serratia marcescens, Nutrient Broth, 10-4. The format is cell-based. Here is the method: (§1) Minimal inhibitory concentrations were determined by the 2-fold broth dilution method utilizing equimolar concentrations of each compound.
For another series, the system named is K. pneumoniae A15130. Kind of series: MIC, 2-fold broth dilution, K. pneumoniae A15130. In kind it is cell-based. Particulars: Klebsiella pneumoniae, Nutrient Broth, 10-4. As to the method:
as §1
In general terms: Dilution methods test growth across graded concentrations, often in twofold steps.

The next series deals with Ent. cloacae A9656. Kind of series: MIC, 2-fold broth dilution, Ent. cloacae A9656. Particulars: Enterobacter cloacae, Nutrient Broth, 10-4. In kind it is cell-based. As to the method: as §1
The subject of the next series is Ent. cloacae A9659. As to the kind of experiment: MIC, 2-fold broth dilution, Ent. cloacae A9659. The format is cell-based. The following applies: Enterobacter cloacae, Nutrient Broth, 10-4. Here is the method:
as §1

The test system of another series is Pr. mirabilis A9900. As to the kind of experiment: MIC, 2-fold broth dilution, Pr. mirabilis A9900. In kind it is cell-based. Particulars: Proteus mirabilis, Nutrient Broth, 10-4. Here is the method: as §1
A further series deals with Ent. cloacae A9657. As to the kind of experiment: MIC, 2-fold broth dilution, Ent. cloacae A9657. The following applies: Enterobacter cloacae, Nutrient Broth, 10-4. In kind it is cell-based. Here is the method:
as §1

Another series concerns S. aureus Smith A9537. Kind of series: MIC, 2-fold broth dilution, S. aureus Smith A9537. The format is cell-based. The following applies: Staphylococcus aureus, SMITHA9537, Nutrient Broth, 10-4. Here is the method: as §1
For the next series, the system named is E. coli A9675. As to the kind of experiment: MIC, 2-fold broth dilution, E. coli A9675. Particulars: Escherichia coli, Nutrient Broth, 10-4. The format is cell-based. As to the method: as §1
In a further series the test system is Sal. enteritidis A9531. As to the kind of experiment: MIC, 2-fold broth dilution, Sal. enteritidis A9531. The format is cell-based. Particulars: Salmonella enterica, Nutrient Broth, 10-4. Here is the method:
as §1

The subject of another series is Ps. aeruginosa A9843A. Kind of series: MIC, 2-fold broth dilution, Ps. aeruginosa A9843A. Particulars: Pseudomonas aeruginosa. The format is cell-based. Here is the method:
as §1

For a further series, the system named is D. pneumoniae A9585. Kind of series: MIC, 2-fold broth dilution, D. pneumoniae A9585. The format is cell-based. Particulars: Streptococcus pneumoniae, 10-3 dilution of overnite broth culture, 45% AAB + 5% serum + 50% NB. As to the method:
(§2) *45% AAB + 5% serum + 50% NB
(§3) **Dilution of overnite broth culture
as §1

The subject of another series is E. coli Juhl A15119. As to the kind of experiment: MIC, 2-fold broth dilution, E. coli Juhl A15119. The following applies: Escherichia coli, JUHLA15119; Nutrient Broth; 10-4. The format is cell-based. As to the method: as §1
Series [1] deals with S. aureus Meth-Res A15097. As to the kind of experiment: MIC, 2-fold broth dilution, S. aureus Meth-Res A15097. The format is cell-based. Particulars: Staphylococcus aureus; Nutrient Broth; 10-3. As to the method:
as §1

Another series concerns K. pneumoniae A9977. As to the kind of experiment: MIC, 2-fold broth dilution, K. pneumoniae A9977. The format is cell-based. The following applies: Klebsiella pneumoniae, Nutrient Broth, 10-4. As to the method:
as §1

Another series concerns Str. pyogenes A9604. Kind of series: MIC, 2-fold broth dilution, Str. pyogenes A9604. The format is cell-based. The following applies: Streptococcus pyogenes, 10-3 dilution of overnite broth culture, 45% AAB + 5% serum + 50% NB. Here is the method: as §2, §3, §1
For a further series, the system named is S. aureus BX1633 A9606. Kind of series: MIC, 2-fold broth dilution, S. aureus BX1633 A9606. The format is cell-based. Particulars: Staphylococcus aureus, BX1633A9606, Nutrient Broth. As to the method: as §1
The subject of a further series is Pr. morganii A15153. Kind of series: MIC, 2-fold broth dilution, Pr. morganii A15153. In kind it is cell-based. The following applies: Morganella morganii, Nutrient Broth, 10-4. As to the method: as §1
Series [2] is described as follows: Hydrolysis in human serum (bioautographed paper chromatography). In kind it is in vitro ADME. As to the method:
(§4) Solutions of 0.5 mg./ml. of 7-D-(-)α-amino-α-p(-acetoxyphenylacetamido)desacetoxycephalosporanic acid (p-acetoxycephalexin) in normal saline and in human serum were prepared. Standard solutions of 0.5 mg./ml. of 7-D-(-)α-amino-α-p(-hydroxyphenylacetamido)desacetoxycephalosporanic acid (p-hydroxycephalexin) were also prepared in both normal saline and human serum.
(§5) All the above solutions were incubated at 37° C. with shaking and sampled for chromatography at time intervals of 0, 2, 4, 8 and 24 hours. The solutions, approximately 5 microliters per strip, were spotted on Whatman No. 1 half-inch strips which were dried and developed in a solvent system containing 80 parts butylacetate; 15 parts n-butanol; 40 parts acetic acid; and 24 parts water. The strips were then bioautographed on plates seeded with bacillus subtilis at a pH of 6.0.

The nature of series [3]: Stability in normal saline (bioautographed paper chromatography). In kind it is physicochemical. Particulars: 0.5 mg./ml. in normal saline, 37° C., sampled 0-24 hours. Here is the method:
as §4, §5

In brackets after ≈: the same amount, converted by molar mass.

For orientation: MIC means the smallest concentration in the dilution series that meets the test's criterion for growth inhibition.

In the case of `CC1=C(C(=O)O)N2C(=O)[C@@H](NC(=O)[C@H](N)c3ccc(O)cc3)[C@H]2SC1` [BL-S 578-4, 7-D-(-)α-amino-α-(p-hydroxyphenylacetamido)desacetoxycephalosporanic acid, reference compound], the minimum inhibitory concentration (MIC) in the series on Ser. marcescens A20019 was above 125 µg/mL; in the series on K. pneumoniae A15130 it was 32 µg/mL (≈ 88.1 µM); in the series on Ent. cloacae A9656 it was above 125 µg/mL; with Ent. cloacae A9659 it was above 125 µg/mL; in the series on Pr. mirabilis A9900, 8 µg/mL (≈ 22 µM); in the series on Ent. cloacae A9657, 16 µg/mL (≈ 44 µM). Moreover, the MIC is 1.3 µg/mL (≈ 3.58 µM) with S. aureus Smith A9537; 1.3 µg/mL in the series on S. aureus Smith A9537 (+ 50% serum); 32 µg/mL (≈ 88.1 µM) against E. coli A9675; 8 µg/mL (≈ 22 µM) with Sal. enteritidis A9531; above 125 µg/mL in the series with Ps. aeruginosa A9843A; 0.6 µg/mL in the series with D. pneumoniae A9585. Moreover, the minimum inhibitory concentration (MIC) in the series with E. coli Juhl A15119 amounted to 16 µg/mL (≈ 44 µM); in series [1] it was 16 µg/mL (≈ 44 µM); in the series on K. pneumoniae A9977, 16 µg/mL (≈ 44 µM); in the series on Str. pyogenes A9604, 0.08 µg/mL; in the series on S. aureus BX1633 A9606 (10-2), 2 µg/mL (≈ 5.5 µM); against S. aureus BX1633 A9606 (10-3), 2 µg/mL (≈ 5.5 µM). The same compound came in with an MIC against Pr. morganii A15153 above 125 µg/mL.

Consider `N[C@@H](C(=O)N[C@@H]1C(=O)N2C(C(=O)O)=C(CSc3c[nH]nn3)CS[C@H]12)c1ccc(O)cc1` [Bl-S640, reference compound], for which the MIC with Ser. marcescens A20019 is 125 µg/mL (≈ 270 µM); against K. pneumoniae A15130, 1 µg/mL (≈ 2.16 µM); in the series with Ent. cloacae A9656, 125 µg/mL (≈ 270 µM); in the series with Ent. cloacae A9659, 32 µg/mL (≈ 69.2 µM); in the series on Pr. mirabilis A9900 it was 0.5 µg/mL (≈ 1.08 µM); in the series with Ent. cloacae A9657, 0.5 µg/mL (≈ 1.08 µM). For the same compound, the minimal inhibitory concentration (MIC) in the series with S. aureus Smith A9537 is 0.3 µg/mL (≈ 0.649 µM); in the series on S. aureus Smith A9537 (+ 50% serum), 1 µg/mL; in the series with E. coli A9675, 4 µg/mL (≈ 8.65 µM); against Sal. enteritidis A9531 it was 0.6 µg/mL (≈ 1.3 µM); in the series on Ps. aeruginosa A9843A, 125 µg/mL (≈ 270 µM); with D. pneumoniae A9585, 0.04 µg/mL. Moreover, the MIC against E. coli Juhl A15119 is 0.5 µg/mL (≈ 1.08 µM); in series [1], 4 µg/mL (≈ 8.65 µM); against K. pneumoniae A9977, 0.5 µg/mL (≈ 1.08 µM); in the series with Str. pyogenes A9604, 0.04 µg/mL; against S. aureus BX1633 A9606 (10-2), 1 µg/mL (≈ 2.16 µM); with S. aureus BX1633 A9606 (10-3), 0.6 µg/mL (≈ 1.3 µM). In the series with Pr. morganii A15153, this compound registered an MIC of 63 µg/mL (≈ 136 µM).

Consider `CC(=O)Oc1ccc([C@@H](N)C(=O)N[C@@H]2C(=O)N3C(C(=O)O)=C(C)CS[C@H]23)cc1` [RN 1394, 7-D(-)2-amino-2-(4-acetoxyphenylacetamido)desacetoxycephalosporanic acid], for which the “hydrolysis to the p-hydroxy form in human serum” value in series [2] (0.5 mg./ml. in human serum, 37° C., sampled 0-24 hours) was “quickly hydrolyzed to the p-hydroxy form”. For the same compound, the “enzymatic hydrolysis to the p-hydroxy compound” value in series [2] (enzymatic) is reported as “hydrolyzed enzymatically”. In addition, the MIC in the series with Ser. marcescens A20019 was above 125 µg/mL; in the series with K. pneumoniae A15130, 32 µg/mL (≈ 78.9 µM); with Ent. cloacae A9656, above 125 µg/mL; against Ent. cloacae A9659, above 125 µg/mL; against Pr. mirabilis A9900, 8 µg/mL (≈ 19.7 µM); with Ent. cloacae A9657 it was 8 µg/mL (≈ 19.7 µM). Further, the minimum inhibitory concentration (MIC) against S. aureus Smith A9537 was 0.6 µg/mL (≈ 1.48 µM); with S. aureus Smith A9537 (+ 50% serum) it was 0.6 µg/mL; against E. coli A9675, 63 µg/mL (≈ 155 µM); against Sal. enteritidis A9531, 8 µg/mL (≈ 19.7 µM); in the series on Ps. aeruginosa A9843A, above 125 µg/mL; with D. pneumoniae A9585, 0.08 µg/mL. The MIC stood at 32 µg/mL (≈ 78.9 µM) in the series on E. coli Juhl A15119; 32 µg/mL (≈ 78.9 µM) in series [1]; 16 µg/mL (≈ 39.5 µM) with K. pneumoniae A9977; 0.08 µg/mL in the series on Str. pyogenes A9604; 2 µg/mL (≈ 4.93 µM) in the series on S. aureus BX1633 A9606 (10-2); 1 µg/mL (≈ 2.47 µM) against S. aureus BX1633 A9606 (10-3). This compound gave a minimum inhibitory concentration (MIC) against Pr. morganii A15153 above 125 µg/mL. Also, the “stability in normal saline” value in [3] (listed as 7-D-(-)α-amino-α-(p-acetoxyphenyl-acetamido)desacetoxycephalosporanic acid) is “stable in normal saline”; in [3] (listed as p-acetoxycephalexin), “appears stable”.

Regarding `CC(=O)Oc1ccc([C@@H](N)C(=O)N[C@@H]2C(=O)N3C(C(=O)O)=C(CSc4c[nH]nn4)CS[C@H]23)cc1` [RN 1396], the minimal inhibitory concentration (MIC) was determined as 125 µg/mL (≈ 248 µM) in the series on Ser. marcescens A20019; 2 µg/mL (≈ 3.96 µM) with K. pneumoniae A15130; 125 µg/mL (≈ 248 µM) in the series with Ent. cloacae A9656; 32 µg/mL (≈ 63.4 µM) in the series with Ent. cloacae A9659; 0.5 µg/mL (≈ 0.991 µM) against Pr. mirabilis A9900; 1 µg/mL (≈ 1.98 µM) against Ent. cloacae A9657. In addition, the minimum inhibitory concentration (MIC) with S. aureus Smith A9537 stood at 0.16 µg/mL (≈ 0.317 µM); in the series with S. aureus Smith A9537 (+ 50% serum) it was 1 µg/mL; against E. coli A9675, 8 µg/mL (≈ 15.9 µM); in the series with Sal. enteritidis A9531, 0.3 µg/mL (≈ 0.595 µM); with Ps. aeruginosa A9843A, 125 µg/mL (≈ 248 µM); in the series on D. pneumoniae A9585, 0.04 µg/mL. Also, the minimal inhibitory concentration (MIC) against E. coli Juhl A15119 amounted to 2 µg/mL (≈ 3.96 µM); in series [1], 8 µg/mL (≈ 15.9 µM); against K. pneumoniae A9977 it was 1 µg/mL (≈ 1.98 µM); in the series with Str. pyogenes A9604 it was 0.04 µg/mL; against S. aureus BX1633 A9606 (10-2), 4 µg/mL (≈ 7.93 µM); against S. aureus BX1633 A9606 (10-3) it was 0.6 µg/mL (≈ 1.19 µM). The same compound yielded an MIC against Pr. morganii A15153 of 63 µg/mL (≈ 125 µM).

The values above are taken from US4012382A, “α-Amino and α-formyl-α-(p-acyloxyphenyl)acetamidocephalosporanic acid derivatives” (priority 1974, dated 1977).
